Assay results: patent US8703813B2, “Compound with spiro chiral carbon backbone, preparation method thereof, and pharmaceutical composition containing the same” (SNU R & DB Foundation, priority 2008, dated 2014)

Columns and labels:
C3H/10T1/2 cells = test: Osteoblast formation activity (calcium deposition assay, Alizarin Red S); type: cell-based, mouse
Description: C3H/10T1/2 cells, which are mouse mesenchymal progenitor cells purchased from ATCC, were diluted in DMEM (Dulbecco's Modified Eagle Medium) medium containing 5.958 g/L HEPES, 3.7 g/L sodium bicarbonate, and 10% FBS (fetal bovine serum), and cultured in 24-well culture plates at a density of 4×10^4 cells/well, in the presence of 5% CO2 at 37° C. for 2 days. The cultured cells were grown to 90˜100% confluency in the culture plates, the cells were cultured in DMEM medium containing 10% FBS, to which 10 mM of β-glycerophosphate and 50μ/ml of ascorbic acid were added, in the presence of 5% CO2 at 37° C. for 6 days, to induce differentiation into osteoblast. The medium was exchanged every other day during differentiation. The C3H/10T1/2 cell line, in which differentiation into the osteoblast was induced, was washed with PBS (Phosphate Buffered Saline) once, and fixed with 70% ethanol at 20° C. for 1 hour. The cells after fixing were washed with cold PBS three times, and stained with 40 mM Alizarin Red S dye solution at room temperature for 20 minutes. The dye solution was removed and the cells were washed with distilled water three times in order to selectively observe only the cells differentiated into the osteoblast.
An aliquot 116V and an aliquot 116VI extracted and partitioned from sponges are dissolved in a DMSO solvent, and used to treat the C3H/10T1/2 cell line, mesenchymal progenitor cells, at concentrations of 1, 2.5, 5, 10, and 20 ug/ml. […] Since then, the same experiment was performed on the compound (1163), the compound 2 (1162), the compound 3 (1161), and the compound 4 (1164), which were purely separated from the aliquots 116V and 116VI, and as a result, it could be confirmed that the osteoblast differentiation ability was increased in the compounds 1, 3, and 4. […] To study a mechanism with respect to osteoblast differentiation ability, the C3H/10T1/2 cell lines were treated with the compound 1 and the compound 4 for 6 days, respectively. […] Also, the C3H/10T1/2 cell lines were treated with the compound 1 and the compound 4 for 6 days, respectively. […] Furthermore, it could be ascertained that combining of Runx2 and TAZ proteins was increased by treatment of the compounds and thus the activity of Runx2-meditated transcription was increased. The compound 5, which is an ester derivative of the compound 1 (1163), was synthesized in order to prepare a material having more excellent bioactivity, and the structure of the compound 5 obtained thus was determined. […] Therefore, the compounds of the present invention and derivatives thereof are expected to promote the differentiation of the osteoblast and thus play an innovative role in treatment of osteoporosis.

LXRα = biological target: T1, LXRα (Homo sapiens, UniProt Q13133); test: LXR antagonistic activity, GAL-hLXR luciferase transfection assay in CV-1 cells; type: cell-based; settings: antagonism, together with agonist TO901317 (2.5 μM), 24 hours
T1 sequence (Q13133 209-447 limits assumed): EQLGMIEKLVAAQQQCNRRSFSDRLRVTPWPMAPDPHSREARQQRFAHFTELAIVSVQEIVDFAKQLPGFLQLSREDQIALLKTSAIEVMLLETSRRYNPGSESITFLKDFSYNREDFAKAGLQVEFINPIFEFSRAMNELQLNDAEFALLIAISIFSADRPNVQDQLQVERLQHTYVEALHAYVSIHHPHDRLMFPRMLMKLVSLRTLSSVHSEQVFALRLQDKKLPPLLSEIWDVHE
Description: (§1) Animal cell line CV-1 was used in transfection search. Cells were cultured in DMEM medium within a cell culture device containing 5% carbon dioxide at 37° C. The medium contained 10% FBS (fetal bovine serum), 100 U/ml penicillin, and 100 μg/ml streptomycin. On day 1 of the experiment, CV 1 cells were seeded in 96 well plates at 5,000 cells/well. On day 2, the seeded cells were transfected with plasmid expressing GAL-hLXR, plasmid expressing Luciferase gene, and plasmid expressing β-galactocidase by using a transfection reagent, Superfect (QIAGEN). After 16 hours, the transfected cells were treated with the compound 1 dissolved in dimethylsulfoxide (DMSO) by the concentrations, together with the agonist, TO901317 (2.5 μM). Cells treated with dimethylsulfoxide having the final concentration of 1% were used as a negative control group, and cells treated with T0901317 having the final concentration of 500 nM were used as a positive control group. The cells were cultured for 24 hours, and lysed by using a lysis buffer. […] The β-galactosidase activity, after adding of an ONPG reagent, was measured using an ELISA reader. The measured Luciferase value was corrected by activity value of β-galactosidase. […] In addition, the activities on various nuclear receptors were measured by using the same method, in order to measure selectivity for various nuclear receptors.

LXRβ = biological target: T2, LXRβ (Homo sapiens, UniProt P55055); test: as above; type: cell-based; settings: antagonism, together with agonist TO901317 (2.5 μM), 24 hours
T2 sequence (P55055 222-460 limits assumed): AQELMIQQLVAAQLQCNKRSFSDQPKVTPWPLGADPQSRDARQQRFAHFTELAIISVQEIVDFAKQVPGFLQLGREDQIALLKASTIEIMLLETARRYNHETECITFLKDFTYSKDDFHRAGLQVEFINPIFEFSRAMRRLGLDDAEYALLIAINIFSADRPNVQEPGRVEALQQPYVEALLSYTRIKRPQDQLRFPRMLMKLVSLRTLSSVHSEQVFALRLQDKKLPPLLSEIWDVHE
Description: as §1

C57BL/6 mice = test: Fatty liver inhibitory efficacy in T0901317-induced fatty liver model; type: in vivo, mouse
Source text: In order to verify the fatty liver inhibitory efficacy of the compound 1 developed in the present invention, C57BL/6 mice were used in this experiment. A fatty liver model was constructed by administering T0901317, which generates fatty liver, to 10-week age C57BL/6 mice while feeding the C57BL/6 mice with general feed-additive. The fatty liver inhibitory efficacy of the compound 1 was observed by orally administering this compound. A mouse fed with 0.75% of only carboxymethylcellulose, as a medication deliver, was used for a negative control group, and a mouse fed with only TO901317 was used for a positive control group. In addition, in order to analyze gene expression of C57BL/6 mouse liver, the mouse livers of the negative control group, the positive control group, and the treatment group were extracted and treated with Trizol, to obtain RNAs. The obtained RNAs were quantified using an absorption spectrometer (Nanodrop), and cDNAs were obtained from RNAs having the same amount among respective groups through an RT-PCR method using oligo dT and reverse transcriptase. The real-time polymerase chain reaction was performed using cDNAs, which were obtained for analysis of mRNA change among groups, as templates, and using primers of transporter genes related to fat synthesis and inflow of fat to the liver. […] Accordingly, the compounds of the present invention and derivatives thereof are expected to play a very innovative role in treatment of alcoholic fatty liver, non-alcoholic fatty liver, and fatty liver due to viral infection.

IC50 (LXRα): 18.7 nM
IC50 (LXRβ): 20.4 nM
SMILES: CC(C)=CCC/C(C)=C/[C@H]1CC(C)=C[C@@]2(C=C(CO)[C@@H]3CC(=O)C(C)=C[C@@H]3O2)O1 [Compound 1]
osteoblast differentiation ability, concentration dependence (C3H/10T1/2 cells; C3H/10T1/2, 1, 2.5, 5, 10, and 20 ug/ml, 6 days): remarkably increased at the concentrations of up to 10 ug/ml in a concentration-dependent manner
osteoblast differentiation ability (C3H/10T1/2 cells; C3H/10T1/2, calcium deposition): increased
concentration at which cytotoxicity was observed (C3H/10T1/2 cells; C3H/10T1/2 during osteoblast differentiation): 20000 ng/mL
liver expression of fatty acid synthetic genes and transporter genes of transporting fats to the liver (C57BL/6 mice; mouse liver, real-time PCR): inhibits the expression
fatty liver inhibitory efficacy (C57BL/6 mice; oral administration, T0901317-induced fatty liver, C57BL/6 mice): very superior fatty liver inhibitory efficacy
body weight among the treatment group and the control groups (C57BL/6 mice; oral administration, fatty liver-induced C57BL/6 mice): no difference in body weight
